Assays:
DV2 NS2B-NS3 proteinase = target: T1, DV2 NS2B-NS3 proteinase (Dengue virus type 2, UniProt P29990); experiment: DV2 NS2B-NS3 proteinase activity assay (cross-reactivity); assay type: biochemical; conditions: pyroglutamic acid-Arg-Thr-Lys-Arg-7-amino-4-methylcoumarin substrate
T1 construct: The pET15b-Den2-CF40-Gly-NS3pro 185 plasmid encoding the Dengue virus type 2 NS2B-NS3 protease; made in house
Excerpt: (§1) Reagents were purchased from Sigma unless indicated otherwise. The FRET substrate Ac-DE-D(Edans)-EE-Abu-ψ-[COO]-AS-K(Dabsyl)-NH2, purified recombinant wild-type NS3/4A from HCV genotype 1b, strain HC-J4, and the mutants with the V36M, R155K, A156T, D168A and V170A resistance mutations were from AnaSpec (Fremont, CA). The NS3/4A construct represented the individual NS3 proteinase domain N-terminally fused with an NS4A co-factor and tagged with a 6xHis tag. NS3/4A was in active form and the pre-activation by pep-4A or pep4AK was not necessary. Pyroglutamic acid-Arg-Thr-Lys-Arg-7-amino-4-methylcoumarin was from Peptides International (Louisville, KY). West Nile virus NS2B-NS3 proteinase (strain NY99) was expressed, purified and refolded to restore its functional activity as described earlier. The pET15b-Den2-CF40-Gly-NS3pro 185 plasmid encoding the Dengue virus type 2 NS2B-NS3 protease was a kind gift of Dr. Subhash Vasudevan (Program in Emerging Infectious Diseases, DUKE-NUS Graduate Medical School, Singapore). DV NS2B-NS3 proteinase was expressed purified and refolded to restore its functional activity as described previously, [70]. The expression of the soluble C-terminally truncated human furin construct in Sf9 insect cells (an ovarian cell line from fall armyworm Spodoptera frugiperda; Invitrogen, Carlsbad, CA) infected with the recombinant baculovirus and purification of soluble furin from the medium were described earlier. Original human hepatocarcinoma Huh7 cells were obtained from ATCC (Manassas, VA).
The activity of furin and both WNV and DV2 NS2B-NS3 proteinases (10 nM each) was measured in triplicate in 0.2 ml 20 mM Tris-HCl buffer, pH 8.0, containing 20% glycerol and 0.005% Brij 35 (for furin – 100 mM HEPES, pH 7.5, containing 1 mM CaCl2, 1 mM β-mercaptoethanol and 0.005% Brij 35) and pyroglutamic acid-Arg-Thr-Lys-Arg-7-amino-4-methylcoumarin (10 µM) as a substrate (λex = 360 nm; λem = 465 nm) as described earlier.
(§2) To measure the inhibitory potency of the compounds, their increasing concentrations were pre-incubated with the individual proteinases in the corresponding buffer for 30 min at ambient temperature. At least, 7–9 different concentrations were used for each inhibitor. The residual activity of the enzymes was then measured as above. The IC50 values of the inhibitory compounds were calculated by determining the concentrations of the compounds needed to inhibit 50% of the enzyme activity against the peptide substrate. GraphPad Prism was used as fitting software.

HCV NS3/4A (wild-type) = target: T2, HCV NS3/4A (wild-type) (Hepatitis C virus genotype 1b, UniProt O92972); experiment: NS3/4A activity assay with FRET peptide substrate, wild-type enzyme; assay type: biochemical, HCV genotype 1b, strain HC-J4; conditions: wild-type NS3/4A 10 nM, Ac-DE-D(Edans)-EE-Abu-ψ-[COO]-AS-K(Dabsyl)-NH2 10 µM, 30 min pre-incubation; read-out: NS3/4A IC50
T2 construct: The NS3/4A construct represented the individual NS3 proteinase domain N-terminally fused with an NS4A co-factor; 6xHis; purchased AnaSpec (Fremont, CA)
Excerpt: as §1
The NS3/4A activity assay was performed at 37°C in triplicate in wells of a 96-well plate in 0.2 ml 50 mM HEPES, pH 7.5, containing 100 mM NaCl, 10 mM DTT, 20% glycerol, the Ac-DE-D(Edans)-EE-Abu-ψ-[COO]-AS-K(Dabsyl)-NH2 substrate (10 µM) and the NS3/4A enzyme (10 nM). Reaction velocity was monitored continuously at λex = 355 nm and λem = 500 nm for 10 min using a Spectramax Gemini EM fluorescence spectrophotometer (Molecular Devices, Sunnyvale, CA) and the initial rate of reaction v was recorded for each reaction. There was no significant additional absorption by compounds 1–8 we identified, which might interfere with NS3/4A assay. Compound stock solutions (10 mM) were made in 100% DMSO. Stocks were then diluted using the assay buffer. As a result, the final DMSO concentration was always below 1% in the assay reactions.
as §2

T1 sequence (P29990 1476-1653): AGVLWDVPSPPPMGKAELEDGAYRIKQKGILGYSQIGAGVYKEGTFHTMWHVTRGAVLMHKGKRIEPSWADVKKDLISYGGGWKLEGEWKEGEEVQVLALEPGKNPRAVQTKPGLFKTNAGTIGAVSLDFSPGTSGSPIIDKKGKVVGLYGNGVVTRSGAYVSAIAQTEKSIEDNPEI
T2 sequence (O92972 1027-1208): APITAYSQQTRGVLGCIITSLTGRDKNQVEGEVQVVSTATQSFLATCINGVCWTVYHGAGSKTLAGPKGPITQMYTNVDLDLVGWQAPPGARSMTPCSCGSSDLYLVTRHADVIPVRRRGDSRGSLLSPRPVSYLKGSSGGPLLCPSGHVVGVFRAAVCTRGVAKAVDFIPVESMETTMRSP

| SMILES | IC50 (DV2 NS2B-NS3 proteinase) | IC50 (HCV NS3/4A (wild-type)) |
| --- | --- | --- |
| O=C(Nc1ccccc1)c1cc(S(=O)(=O)Nc2nc3ncccc3[nH]2)c(SSc2cc(Cl)c(C(=O)Nc3ccccc3)cc2S(=O)(=O)Nc2nc3ncccc3[nH]2)cc1Cl [Compound 1] | 19.7 µM | 0.183 µM |
| Clc1ccc(OCc2nn3c(CCc4nnc5sc(COc6ccc(Cl)cc6)nn45)nnc3s2)cc1 [Compound 2] | > 100 µM | 0.3 µM |
| Cc1n[nH]c(=S)n1Nc1nc(SCc2ccccc2)nc2n[nH]c(Cc3nn[nH]n3)c12 [Compound 3] | 34.5 µM | 0.36 µM |
| Oc1ccccc1-c1nnc2sc3c(Cl)c4nn5c(-c6ccccc6O)nnc5sc4c(Cl)c3nn12 [Compound 4] | 14.3 µM | – |
| Clc1ccc(Nc2nc(SCc3ccccc3)nc3n[nH]c(Cc4nc5ccccc5s4)c23)cc1 [Compound 5] | 49.4 µM | 0.38 µM |
| S=c1[nH]nc(Nc2nc(SCc3ccccc3)nc3n[nH]c(Cc4nn[nH]n4)c23)s1 [Compound 6] | 20.6 µM | 0.95 µM |
| S=c1[nH]n2c(COc3cc(Cl)c(OCc4nnc5sc(=S)[nH]n45)cc3Cl)nnc2s1 [Compound 7] | > 100 µM | – |
| COc1cc(C2C(C(=O)Nc3ccc(Cl)c(Cl)c3)=C(C)NC(C)=C2C(=O)Nc2ccc(Cl)c(Cl)c2)ccc1O [Compound 8] | 38.8 µM | – |

Reference: publication PMC3388044, “Probing of Exosites Leads to Novel Inhibitor Scaffolds of HCV NS3/4A Proteinase” (PLoS ONE, 2012)
